These results are taken from patent publication US20070190188A1, “Controlling Toxicity of Aminoquinoline Compounds” (The University of Mississippi, priority 2005, published 2007).

Common to all, as to assay type: cell-based
Common to all, as to conditions: mean ± S.D. of four

The target in one series is T1, CYP 2C8 (Homo sapiens, UniProt P10632).
T1 construct: purchased; host or cells: insect cells infected with recombinant baculovirus
T1 sequence (P10632 1-490): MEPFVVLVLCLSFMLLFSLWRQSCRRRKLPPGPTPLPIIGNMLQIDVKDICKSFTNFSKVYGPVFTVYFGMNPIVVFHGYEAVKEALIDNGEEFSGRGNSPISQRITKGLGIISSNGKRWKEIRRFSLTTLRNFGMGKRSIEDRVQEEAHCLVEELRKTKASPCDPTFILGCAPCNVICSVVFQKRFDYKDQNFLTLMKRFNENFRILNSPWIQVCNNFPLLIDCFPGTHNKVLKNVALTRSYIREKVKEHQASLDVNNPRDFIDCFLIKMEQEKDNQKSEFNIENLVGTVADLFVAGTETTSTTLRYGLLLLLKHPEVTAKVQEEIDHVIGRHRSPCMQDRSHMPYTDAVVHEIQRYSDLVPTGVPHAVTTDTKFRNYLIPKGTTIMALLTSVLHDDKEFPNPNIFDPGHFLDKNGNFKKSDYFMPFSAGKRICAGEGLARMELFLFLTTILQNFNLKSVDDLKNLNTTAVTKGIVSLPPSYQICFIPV
In words: Methemoglobinemic metabolite formation with Baculosomes, CYP 2C8.

Another series concerns the target T2, CPY 2B6 (Homo sapiens, UniProt P20813).
T2 construct: purchased; host or cells: insect cells infected with recombinant baculovirus
T2 sequence (P20813 1-491): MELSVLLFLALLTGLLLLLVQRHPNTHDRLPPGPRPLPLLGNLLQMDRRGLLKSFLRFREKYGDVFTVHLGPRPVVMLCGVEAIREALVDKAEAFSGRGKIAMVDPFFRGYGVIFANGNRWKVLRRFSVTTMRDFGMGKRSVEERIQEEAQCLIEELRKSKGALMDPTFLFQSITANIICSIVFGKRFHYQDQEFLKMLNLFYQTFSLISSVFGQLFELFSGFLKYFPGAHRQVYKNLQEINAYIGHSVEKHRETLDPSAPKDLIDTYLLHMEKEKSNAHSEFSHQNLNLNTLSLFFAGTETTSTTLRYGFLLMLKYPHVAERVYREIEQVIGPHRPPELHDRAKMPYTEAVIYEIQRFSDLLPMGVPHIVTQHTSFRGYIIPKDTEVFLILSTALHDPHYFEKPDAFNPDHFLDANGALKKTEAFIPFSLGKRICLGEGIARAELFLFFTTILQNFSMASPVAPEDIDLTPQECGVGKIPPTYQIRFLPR
In words: Methemoglobinemic metabolite formation with Baculosomes, CYP 2B6.

In the next series the target is T3, CYP 1A2 (Homo sapiens, UniProt P05177).
T3 construct: purchased; host or cells: insect cells infected with recombinant baculovirus
T3 sequence (P05177 2-516 limits assumed): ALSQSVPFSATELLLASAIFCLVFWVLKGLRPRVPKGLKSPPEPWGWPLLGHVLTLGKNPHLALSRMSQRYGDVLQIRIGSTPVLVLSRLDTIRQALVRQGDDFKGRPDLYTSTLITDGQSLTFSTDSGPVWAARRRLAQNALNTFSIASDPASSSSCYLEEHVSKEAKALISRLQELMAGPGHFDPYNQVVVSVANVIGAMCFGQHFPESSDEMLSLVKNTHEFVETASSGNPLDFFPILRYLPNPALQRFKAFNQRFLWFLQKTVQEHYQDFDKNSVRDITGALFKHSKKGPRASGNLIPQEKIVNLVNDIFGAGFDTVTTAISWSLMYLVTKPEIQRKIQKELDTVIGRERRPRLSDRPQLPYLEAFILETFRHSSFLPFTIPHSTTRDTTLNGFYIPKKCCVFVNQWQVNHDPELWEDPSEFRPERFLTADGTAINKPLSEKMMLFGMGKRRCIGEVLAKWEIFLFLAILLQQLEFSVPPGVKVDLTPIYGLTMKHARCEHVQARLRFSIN
The series can be described thus: Methemoglobinemic metabolite formation with Baculosomes, CYP 1A2.

Method for CPY 2B6: (§1) This method uses simultaneous incubation of a test compound with the hepatic microsomes or Baculosomes® (microsomes prepared from insect cells infected with recombinant baculovirus containing a cDNA insert for a specific human P450 isozyme and NADPH-P450 reductase) and human erythrocytes followed by determination of methemoglobin formation. This allows the unstable metabolites generated in situ to react with the human erythrocytes.
Method for CYP 1A2: as §1
Method for CYP 2C8: In one aspect of the present invention, an in vitro assay is developed for evaluation of biotransformation reactions leading to generation of methemoglobinemic metabolites of 8-aminoquinolines. This method uses simultaneous incubation of a test compound with the hepatic microsomes or Baculosomes® (microsomes prepared from insect cells infected with recombinant baculovirus containing a cDNA insert for a specific human P450 isozyme and NADPH-P450 reductase) and human erythrocytes followed by determination of methemoglobin formation. This allows the unstable metabolites generated in situ to react with the human erythrocytes.

Turning to `COc1cc(N[C@H](C)CCCN)c2nccc(C)c2c1Oc1ccc(Cl)c(Cl)c1` [NPC1161B], on CYP 2C8, the “% methemoglobin formed, CYP 2C8” value amounted to 1.353 ± 0.791%. At CPY 2B6, the “% methemoglobin formed, CPY 2B6” value turned out to be 2.855 ± 0.419%. Moreover, the “% methemoglobin formed, CYP 1A2” value at CYP 1A2 was determined as 0.00%.
